Source: patent US20160039825A1 (BIOGEN MA INC., priority 2013, published 2016)
pIC50: −log10 of the molar value.

Target: T1, Human ATX protein (Homo sapiens, UniProt Q13822)
T1 construct: made in house
Assay: Autotaxin (ATX) assay, FRET with FS-3 substrate
Assay type: biochemical
Settings: upper bound bins (no greater than 100, 250 or 500 nM); FS-3 2 μM, ATX 1.0 μg/mL
Excerpt: ATX (Autotaxin) is a 125 KDa glycoprotein with lysophospholipase D (LPLD) activity that generates the bioactive lipid lysophosphatidic acid (LPA) from lysophosphatidylcholine (LPC). The ATX biochemical assay utilizes a FRET (fluorescence resonance energy transfer) technology platform. The fluorescence signal of FRET substrate FS-3 is quenched due to intra-molecular FRET of a fluorophore to a non-fluorescing quencher (Ferguson, C. G., et al., Org Lett. 2006 May 11; 8(10): 2023-2026, which is incorporated by reference in its entirety). ATX catalyzes the hydrolysis of the substrate which separates the dabsyl quencher from the fluorescein reporter, which becomes fluorescent. The reaction is monitored by a SpectraMax M5 (Molecular Devices, Sunnyvale, Calif.) with at excitation wavelength 485 nm and emission wavelength […].
Fatty acid free-BSA (Sigma A8806): 10 mg/mL in H2O, stored at 4° C.
2×ATX assay buffer: 100 mM Tris, 280 mM NaCl, 10 mM KCl, 2 mM CaCl2, 2 mM MgCl2, pH 7.4.
Human ATX protein: expressed and purified in house. Stored at −80° C.
Substrate FS-3 (Echelon, L-2000): 100 μg in 77.74 μL H2O (1 mM stock), stored at −20° C.
384-well flat bottom plates—Corning #3575.
Compound dilution—All compounds were provided at 10 mM in 100% DMSO. In the first well, 2 μL of 10 mM compound was added to 78 μL of DMSO (1:40 dilution). In subsequent wells 3-fold dilution (total 10 dilutions) were performed.
1×ATX assay buffer was made up with a final concentration of 1 mg/mL fatty acid free-BSA using 2×ATX assay buffer, 10 mg/ml fatty acid free-BSA and ddH2O.
ATX protein was diluted with 1×ATX assay buffer to a concentration of 1.32 μg/mL (1.32×). 38 μL was added per well to the assay plate. The final concentration of ATX in the reaction as 1.0 μg/mL.
2 μL per well of compounds was transferred to provide the desired concentration. The plate was centrifuged, then incubated at room temperature for 30 minutes on the shaker.
FS-3 was diluted with 1×ATX assay buffer to a concentration of FS-3 of 10 μM (5×). Then, 10 μL was added per well to the assay plate. The final concentration of FS-3 in the reaction was 2 μM. The plate was centrifuged. The plate was kept shaking at room temperature for 2 hours. Because FS-3 substrate is light sensitive, plates were kept covered and protected from light.
Fluorescence was measured using SpectraMax M5 (excitation at 485 nm/emission at 538 nm, top read).

pIC50	Structure (SMILES)
≥ 7.00	O=C(OCc1cc(Cl)cc(C(F)(F)F)c1)N1CCCn2nc(C3CN4CCC[C@H]4CO3)cc2C1 (mixture of isomers) [Example 251, 3-Chloro-5-(trifluoromethyl)benzyl 2-((8aS)-hexahydro-1H-pyrrolo[2,1-c][1,4]oxazin-3-yl)-7,8-dihydro-4H-pyrazolo[1,5-a][1,4]diazepine-5(6H)-carboxylate]
≥ 7.00	O=C(OCc1cc(Cl)cc(C(F)(F)F)c1)N1CCCn2nc(C3CN4CCCC[C@H]4CO3)cc2C1 (mixture of isomers) [Example 253, 3-chloro-5-(trifluoromethyl)benzyl 2-((9aS)-octahydropyrido[2,1-c][1,4]oxazin-3-yl)-7,8-dihydro-4H-pyrazolo[1,5-a][1,4]diazepine-5(6H)-carboxylate]
≥ 7.00	O=C(OCc1cc(Cl)cc(C(F)(F)F)c1)N1CCCn2nc(C3CN4CCCC[C@@H]4CO3)cc2C1 (mixture of isomers) [Example 254, 3-chloro-5-(trifluoromethyl)benzyl 2-((9aR)-octahydropyrido[2,1-c][1,4]oxazin-3-yl)-7,8-dihydro-4H-pyrazolo[1,5-a][1,4]diazepine-5(6H)-carboxylate]
≥ 7.00	O=C(OCc1cc(Cl)cc(C(F)(F)F)c1)N1CCCn2nc(C3CN4CCC[C@@H]4CO3)cc2C1 (single isomer, unassigned) [Example 252A]
≥ 6.30	CCOC(=O)c1cc2n(n1)CCCN(C(=O)OCc1cc(Cl)cc(Cl)c1)C2 [Example 1, 5-(3,5-Dichlorobenzyl) 2-ethyl 7,8-dihydro-4H-pyrazolo[1,5-a][1,4]diazepine-2,5(6H)-dicarboxylate]
≥ 7.00	CCOC(=O)c1cc2n(n1)CCCN(C(=O)OCc1cc(C(F)(F)F)cc(C(F)(F)F)c1)C2 [Example 2, 5-(3,5-Bis(trifluoromethyl)benzyl) 2-ethyl 7,8-dihydro-4H-pyrazolo[1,5-a][1,4]diazepine-2,5(6H)-dicarboxylate]
≥ 7.00	CCOC(=O)c1cn2c(n1)CN(C(=O)OCc1cc(C(F)(F)F)cc(C(F)(F)F)c1)CC2 [Example 3, 7-(3,5-Bis(trifluoromethyl)benzyl) 2-ethyl 5,6-dihydroimidazo[1,2-a]pyrazine-2,7(8H)-dicarboxylate]
≥ 7.00	O=C(O)c1cc2n(n1)CCCN(C(=O)OCc1cc(Cl)cc(Cl)c1)C2 [Example 7, 5-(((3,5-Dichlorobenzyl)oxy)carbonyl)-5,6,7,8-tetrahydro-4H-pyrazolo[1,5-a][1,4]diazepine-2-carboxylic acid]
≥ 7.00	O=C(O)c1cc2n(n1)CCCN(C(=O)OCc1cc(C(F)(F)F)cc(C(F)(F)F)c1)C2 [Example 8, 5-(((3,5-Bis(trifluoromethyl)benzyl)oxy)carbonyl)-5,6,7,8-tetrahydro-4H-pyrazolo[1,5-a][1,4]diazepine-2-carboxylic acid]
≥ 6.30	O=C(O)c1cnc2n1CCN(C(=O)OCc1cc(C(F)(F)F)cc(C(F)(F)F)c1)CC2 [Example 10, 7-(((3,5-Bis(trifluoromethyl)benzyl)oxy)carbonyl)-6,7,8,9-tetrahydro-5H-imidazo[1,2-d][1,4]diazepine-3-carboxylic acid]
≥ 6.60	CC(C)(C)NC(=O)c1cc2n(n1)CCCN(C(=O)OCc1cc(Cl)cc(Cl)c1)C2 [Example 14, 3,5-Dichlorobenzyl 2-(tert-butylcarbamoyl)-7,8-dihydro-4H-pyrazolo[1,5-a][1,4]diazepine-5(6H)-carboxylate]
≥ 7.00	O=C(NC1CCC1)c1cc2n(n1)CCCN(C(=O)OCc1cc(Cl)cc(Cl)c1)C2 [Example 15, 3,5-Dichlorobenzyl 2-(cyclobutylcarbamoyl)-7,8-dihydro-4H-pyrazolo[1,5-a][1,4]diazepine-5(6H)-carboxylate]
≥ 7.00	O=C(NC1CCCC1)c1cc2n(n1)CCCN(C(=O)OCc1cc(Cl)cc(Cl)c1)C2 [Example 16, 3,5-Dichlorobenzyl 2-(cyclopentylcarbamoyl)-7,8-dihydro-4H-pyrazolo[1,5-a][1,4]diazepine-5(6H)-carboxylate]
≥ 7.00	O=C(NC1CCCCC1)c1cc2n(n1)CCCN(C(=O)OCc1cc(Cl)cc(Cl)c1)C2 [Example 17, 3,5-Dichlorobenzyl 2-(cyclohexylcarbamoyl)-7,8-dihydro-4H-pyrazolo[1,5-a][1,4]diazepine-5(6H)-carboxylate]
≥ 7.00	O=C(OCc1cc(Cl)cc(Cl)c1)N1CCCn2nc(C(=O)N3CCCC3)cc2C1 [Example 18, 3,5-Dichlorobenzyl 2-(pyrrolidine-1-carbonyl)-7,8-dihydro-4H-pyrazolo[1,5-a][1,4]diazepine-5(6H)-carboxylate]
≥ 7.00	O=C(OCc1cc(Cl)cc(Cl)c1)N1CCCn2nc(C(=O)N3CCCCC3)cc2C1 [Example 19, 3,5-Dichlorobenzyl 2-(piperidine-1-carbonyl)-7,8-dihydro-4H-pyrazolo[1,5-a][1,4]diazepine-5(6H)-carboxylate]
≥ 7.00	O=C(OCc1cc(Cl)cc(Cl)c1)N1CCCn2nc(C(=O)N3CCC(F)CC3)cc2C1 [Example 20, 3,5-Dichlorobenzyl 2-(4-fluoropiperidine-1-carbonyl)-7,8-dihydro-4H-pyrazolo[1,5-a][1,4]diazepine-5(6H)-carboxylate]
≥ 7.00	CC1CCN(C(=O)c2cc3n(n2)CCCN(C(=O)OCc2cc(Cl)cc(Cl)c2)C3)CC1 [Example 21, 3,5-Dichlorobenzyl 2-(4-methylpiperidine-1-carbonyl)-7,8-dihydro-4H-pyrazolo[1,5-a][1,4]diazepine-5(6H)-carboxylate]
≥ 7.00	O=C(OCc1cc(Cl)cc(Cl)c1)N1CCCn2nc(C(=O)N3CCC(C(F)(F)F)CC3)cc2C1 [Example 22, 3,5-Dichlorobenzyl 2-(4-(trifluoromethyl)piperidine-1-carbonyl)-7,8-dihydro-4H-pyrazolo[1,5-a][1,4]diazepine-5(6H)-carboxylate]
≥ 7.00	O=C(OCc1cc(Cl)cc(Cl)c1)N1CCCn2nc(C(=O)N3CCOCC3)cc2C1 [Example 23, 3,5-Dichlorobenzyl 2-(morpholine-4-carbonyl)-7,8-dihydro-4H-pyrazolo[1,5-a][1,4]diazepine-5(6H)-carboxylate]
≥ 7.00	O=C(OCc1cc(Cl)cc(Cl)c1)N1CCCn2nc(C(=O)N3CCNCC3)cc2C1 [Example 24, 3,5-Dichlorobenzyl 2-(piperazine-1-carbonyl)-7,8-dihydro-4H-pyrazolo[1,5-a][1,4]diazepine-5(6H)-carboxylate]
≥ 7.00	CN1CCN(C(=O)c2cc3n(n2)CCCN(C(=O)OCc2cc(Cl)cc(Cl)c2)C3)CC1 [Example 25, 3,5-Dichlorobenzyl 2-(4-methylpiperazine-1-carbonyl)-7,8-dihydro-4H-pyrazolo[1,5-a][1,4]diazepine-5(6H)-carboxylate]
≥ 7.00	NC1CCN(C(=O)c2cc3n(n2)CCCN(C(=O)OCc2cc(Cl)cc(Cl)c2)C3)CC1 [Example 26, 3,5-Dichlorobenzyl 2-(4-aminopiperidine-1-carbonyl)-7,8-dihydro-4H-pyrazolo[1,5-a][1,4]diazepine-5(6H)-carboxylate]
≥ 7.00	CNC(=O)c1cc2n(n1)CCCN(C(=O)OCc1cc(Cl)cc(Cl)c1)C2 [Example 27, 3,5-Dichlorobenzyl 2-(methylcarbamoyl)-7,8-dihydro-4H-pyrazolo[1,5-a][1,4]diazepine-5(6H)-carboxylate]
≥ 7.00	CN(C)C(=O)c1cc2n(n1)CCCN(C(=O)OCc1cc(Cl)cc(Cl)c1)C2 [Example 28, 3,5-Dichlorobenzyl 2-(dimethylcarbamoyl)-7,8-dihydro-4H-pyrazolo[1,5-a][1,4]diazepine-5(6H)-carboxylate]
≥ 7.00	CCNC(=O)c1cc2n(n1)CCCN(C(=O)OCc1cc(Cl)cc(Cl)c1)C2 [Example 29, 3,5-Dichlorobenzyl 2-(ethylcarbamoyl)-7,8-dihydro-4H-pyrazolo[1,5-a][1,4]diazepine-5(6H)-carboxylate]

Structure (SMILES)	pIC50
O=C(OCc1cc(Cl)cc(Cl)c1)N1CCCn2nc(C(=O)N3C4CCCC3CCC4)cc2C1 [Example 12, 3,5-Dichlorobenzyl 2-(9-azabicyclo[3.3.1]nonane-9-carbonyl)-7,8-dihydro-4H-pyrazolo[1,5-a][1,4]diazepine-5(6H)-carboxylate]	≥ 7.00
